pIC50: −log10 of the molar value. “Also recorded” adds a separate entry of the source.
Key:
DHR-2 domain of DOCK1 = target: T1, DHR-2 domain of DOCK1 (Homo sapiens, UniProt Q14185); test: in vitro GEF assay (Bodipy-FL-GTP loading of Rac); assay type: biochemical; conditions: from IC50 values for DOCK1, DOCK2, DOCK5
T1 construct: Polypeptide fragments that correspond to the DHR-2 domain of DOCK1, DOCK2, or DOCK5; Histidine-SUMO (N); made in house; host or cells: E. coli Arctic express (DE3)
T1 sequence (Q14185 1207-1617 limits assumed): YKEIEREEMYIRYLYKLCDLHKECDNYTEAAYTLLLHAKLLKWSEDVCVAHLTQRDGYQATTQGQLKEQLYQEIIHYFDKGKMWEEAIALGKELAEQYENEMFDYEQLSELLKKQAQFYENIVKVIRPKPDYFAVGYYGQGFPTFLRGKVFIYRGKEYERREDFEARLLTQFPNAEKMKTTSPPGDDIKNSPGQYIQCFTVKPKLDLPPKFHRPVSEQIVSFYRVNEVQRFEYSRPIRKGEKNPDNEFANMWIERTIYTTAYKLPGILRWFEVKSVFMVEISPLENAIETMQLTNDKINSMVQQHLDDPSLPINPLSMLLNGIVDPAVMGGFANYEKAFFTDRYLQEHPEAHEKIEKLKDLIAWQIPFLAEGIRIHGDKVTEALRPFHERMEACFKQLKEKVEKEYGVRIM
Text: Pharmacological Test 1 (In Vitro GEF Assay)
DOCK1, DOCK2, and DOCK5, which are DOCK-A subfamily members, catalyze the GTP-GDP exchange reaction for Rac via the DHR-2 domain to activate Rac.
The in vitro GEF assay referred to in this specification used a labeled GTP (Bodipy-FL-GTP, Invitrogen), whose fluorescence intensity increases when bound to Rac.
Polypeptide fragments that correspond to the DHR-2 domain of DOCK1, DOCK2, or DOCK5 were expressed in E. coli Arctic express (DE3) cells as N-terminal Histidine-SUMO tag-fused recombinant proteins and purified by affinity column chromatography on nickel-NTA columns.
Rac was expressed in E. coli BL21 (DE3) cells as an N-terminal GST tag-fused recombinant protein and purified by affinity column chromatography on glutathione-Sepharose columns.
Subsequently, a reaction solution A containing 20 mM of MES-NaOH, 150 mM of NaCl, 10 mM of MgCl2, and 20 μM of GDP, and having an adjusted pH of 7.0 was incubated at room temperature for 30 minutes while being protected from light in the presence of each of the polypeptide fragments (DHR-2 domains) prepared above and each pyridinone compound or CPYPP dissolved at a predetermined concentration in DMSO or DMSO alone (control) to thus prepare GEF pretreated products. In all of the samples, the final DMSO concentration was adjusted to 3%.
Thereafter, 15 μM of Rac prepared above was added to the reaction solution A and directly allowed to stand on ice for 30 minutes to form a GDP-Rac complex.
Bodipy-FL-GTP was added to 100 μL of the reaction solution A containing the thus prepared GDP-Rac complex to a concentration of 3.6 μM, followed by equilibration at 30° C. for 2 minutes. After equilibration, 50 μL of the pretreated GEF was added for reaction at 30° C.
Changes in fluorescence intensity of Bodipy-FL-GTP were monitored during the reaction using an XS-N (Molecular Devices) or an Enspire spectrofluorometer (Perkin Elmer) (excitation wavelength: 488 nm, emission wavelength: 514 nm). The measured values were corrected so that the fluorescence intensity at the time that the reaction was initiated (0 seconds) was 0.
Then, an approximate curve (hyperbola) was obtained by plotting the calculated correction values on the y axis and the time (t) on the x axis using GraphPad Prism5 (GraphPad software), and the slope at t=0 to 10 seconds was considered to be an initial velocity of guanine nucleotide exchange reaction. The IC50 value was calculated taking the initial reaction velocity of the control, to which only a solvent (DMSO) was added, as 100%.

[1] = tested on: human fibrosarcoma cell line (HT-1080); test: cellular invasion inhibition assay (Matrigel chamber); assay type: cell-based; conditions: FIG. 12(C)
Method: (§1) Pharmacological Test 2 (Cellular Invasion Inhibition Assay)
(§2) Three hundred microliters of a suspension of a mouse lung carcinoma cell line (3LL), a human fibrosarcoma cell line (HT-1080), or a human colon cancer cell line (DLD-1) in DMEM (serum free) was placed in the upper chamber with Matrigel (BD Biosciences) equilibrated with DMEM (serum free) for 120 minutes, while 500 μL of DMEM (with 10% FCS) was placed in the lower chamber. Each pyridinone compound or CPYPP dissolved at a predetermined concentration in DMSO was added to the culture media in both the upper and lower chambers. As a control, DMSO alone was added to the media. In all of the experiments, the final DMSO concentration was adjusted to 0.2%.
(§3) After the resulting products were cultured at 37° C. under 5% CO2 for 22 hours, the chambers were removed, and the culture media were removed. […] After staining, the inserts were cut out with a blade to prepare slides, and the cells were counted under an optical microscope.
(§4) The results were evaluated based on percent cell invasion (%: Invasion) and percent inhibition (%: inhibition). The percent cell invasion was obtained by converting the number of invading cells under each condition to percentage, taking the number of invading cells in the control, to which DMSO was added alone, as 100%; and the percent inhibition was obtained by deducting the percent cell invasion from 100.

[2] = tested on: mouse lung carcinoma cell line (3LL); test: as above; assay type: cell-based; conditions: 3LL cells; for inhibition of cancer cell (3LL) invasion: 22 hours, compared to DMSO; for pIC50: Mus musculus, FIG. 12(B), read-out: IC50 value calculated from cancer cell invasion inhibition
Method: as §1, §2, §3, §4

mouse spleen T cells = test: T lymphocyte migration towards CCL21 (Transwell); assay type: cell-based; conditions: FIG. 16(A)
Text: Pharmacological Test. 6 (Evaluation on T Lymphocyte Migration)
Lymphocyte migration plays key roles in immune responses. T cell stimulation by chemokines, such as CCL21, induces actin cytoskeletal remodeling through Rac activation. This drives the cells to migrate towards the source of chemokines.
Therefore, the use of various pyridinone compounds in this assay system enables cell-level verification of DOCK1 selectivity.
Mouse spleen cells at a cell concentration of 1×10^7 cells/mL were precultured at 37° C. for 1 hour in 0.5% BSA-containing RPMI-1640 (Transwell medium) containing DMSO alone or DMSO in which each pyridinone compound was dissolved at a predetermined concentration.
Subsequently, 500 μL of Transwell medium containing 300 ng/mL of CCL21 and DMSO in which each pyridinone compound was dissolved at a predetermined concentration was added to a 24-well plate. […]
After 2-hour incubation at 37° C., the cells that migrated to the lower chamber were collected and stained with PE-labeled anti-Thy1.2 antibody (53-2-1, BD Pharmingen) and APC-labeled anti-B220 antibody (RA-6B-2, eBioscience). The percentage (%) of the migrated cells was calculated by dividing the number of Thy1.2^+ cells (T cells) in the lower chamber by the number of Thy1.2^+ cells (T cells) placed into the Transwell inserts. […]

| SMILES | selectivity of GEF inhibition to DOCK1 versus DOCK2 and DOCK5 (DHR-2 domain of DOCK1) | inhibition of HT-1080 cell invasion [1] | inhibition of cancer cell (3LL) invasion [2] | pIC50 [2] | CCL21-stimulated T cell migration (mouse spleen T cells) |
| --- | --- | --- | --- | --- | --- |
| O=C(Cn1cc(S(=O)(=O)N2CCCC2)ccc1=O)c1ccc(-c2ccc3ccccc3c2)cc1 [TS-28, 1-(2-(4-(naphthalen-2-yl)phenyl)-2-oxoethyl)-5-(pyrrolidin-1-ylsulfonyl)pyridin-2(1H)-one] | high selectivity to DOCK1 | inhibit HT-1080 cell invasion | significantly excellent inhibitory effect; also recorded: inhibit cancer cell invasion in a concentration-dependent manner | 5.25 | did not affect |
| O=C(Cn1cc(S(=O)(=O)N2CCCC2)ccc1=O)c1ccc(-c2cccc(C(F)(F)F)c2)cc1 [TS-45, 1-(2-oxo-2-(3′-(trifluoromethyl)-[1,1′-biphenyl]-4-yl)ethyl)-5-(pyrrolidin-1-ylsulfonyl)pyridin-2(1H)-one] | high selectivity to DOCK1 | inhibit HT-1080 cell invasion | significantly excellent inhibitory effect; also recorded: inhibit cancer cell invasion in a concentration-dependent manner | 5.52 | did not affect |
